Like-named read-outs stand apart in the source and are kept apart here.
Assays:
[1] = system: human lung carcinoma cells (A549); assay: colorimetric MTT cytotoxicity assay, A549; format: cell-based; conditions: for IC50: Homo sapiens, MTT, n = 3, compounds as HP-β-CD inclusion complex
Description: (§1) The potential antitumor activity of eight new hybrids was evaluated through colorimetric microculture MTT assay against three tumor cell lines: human colon carcinoma cells (HCT116), human laryngeal tumor cells (Hep-2), and human lung carcinoma cells (A549). The hybridized compounds were also assayed against the non-tumor cell line HaCat (human keratinocyte) in order to obtain an indication of their selective cytotoxicity. Also, the commercial anticancer drug doxorubicin was employed as a positive drug standard to compare the cytotoxicity activities. Each experiment was carried out in triplicate on three different days. The selectivity index (SI) was calculated as the ratio between the IC50 (concentration that reduces cell viability by 50%) of HaCat (non-tumor line) and the IC50 of the tumor lines.
(§2) A total of 1 mL of an ethanolic solution containing compounds 7a,b, 8a,b, 9a,b, or 10a,b (0.004 mol L^−1) was vigorously stirred with 1 mL of an aqueous solution of HP-β-CD (0.004 mol L^−1). The resulting mixture was kept under stirring until a clear solution was obtained. The final solution was concentrated under a vacuum to remove the solvent, and the remaining water was removed by lyophilization to give a water-soluble compound of the HP-β-CD complex in a powder form. The stock solutions of the compounds were prepared by dissolving the complexed compounds in 200 µL of DMSO, followed by dissolving in 1800 µL of Dulbecco’s Modified Eagle Medium (DMEM). The stock solution and dilutions were prepared prior to the cytotoxicity assays.
(§3) The human colon carcinoma (HCT116), human laryngeal tumor (Hep-2), and human lung carcinoma (A549) cell lines, and the non-tumor human keratinocyte cell line (HaCat) were purchased from Rio de Janeiro Cell Bank. The cells were maintained in DMEM supplemented with […]; Life Technologies, Carlsbad, CA, USA) and 1% penicillin–streptomycin in a humidified 5% CO2 atmosphere at 37 °C.
(§4) Cytotoxicity was assayed through the colorimetric microculture MTT assay. Cell suspensions were plated in 96-well plates in triplicate at an initial density of 7 × 10^4 cells mL^−1 and incubated at 37 °C for 24 h. After the incubation, the cells were treated with various concentrations of the evaluated compounds (7a,b, 8a,b, 9a,b, or 10a,b) and incubated for 24 and 48 h. After the treatment, the medium was removed, and an MTT solution (0.4 mg mL^−1) was added to each well and further incubated for 2 h at 37 °C. Then, DMSO (100 µL) was added for the solubilization of the formazan crystals, and the absorbance intensities were measured in a microplate reader (SpectraMax M2e, Molecular Devices, Sunnyvale, CA, USA) at 570 nm. The percentage of viable cells was calculated in relation to the control to determine the cytotoxic concentration that reduces 50% of the cell viability (IC50).

[2] = system: HaCat (human keratinocyte); assay: colorimetric MTT cytotoxicity assay, non-tumor HaCat; format: cell-based; conditions: for IC50: Homo sapiens, HaCat non-tumor line, MTT, n = 3, compounds as HP-β-CD inclusion complex
Description: as §1, §2, §3, §4

[3] = system: human colon carcinoma cells (HCT116); assay: colorimetric MTT cytotoxicity assay, HCT116; format: cell-based; conditions: for IC50: Homo sapiens, HCT-116, MTT, n = 3, compounds as HP-β-CD inclusion complex; for Selectivity Index HCT116 24 h: IC50 of HaCat / IC50 of HCT116, 24 h; for Selectivity Index HCT116 48 h: IC50 of HaCat / IC50 of HCT116, 48 h
Description: as §1, §2, §3, §4

[4] = system: human laryngeal tumor cells (Hep-2); assay: colorimetric MTT cytotoxicity assay, Hep-2; format: cell-based; conditions: for IC50: Homo sapiens, MTT, n = 3, compounds as HP-β-CD inclusion complex; for Selectivity Index Hep-2 24 h: IC50 of HaCat / IC50 of Hep-2, 24 h
Description: as §1, §2, §3, §4

[5] = system: human prostate cancer cell line (DU145); set-up: method as in PMID 23124212; conditions: read-out: IC50 against DU145 cell line; cited from earlier work
[6] = system: human acute T lymphoblastic leukemia cell lines (MOLT-3); set-up: method as in PMID 25078311; conditions: antiproliferative activity, read-out: IC50 against MOLT3 cell line; cited from earlier work
[7] = A549, 24 h, read-out: IC50 (µM ± SD) A549 24 h
[8] = A549, 48 h, read-out: IC50 (µM ± SD) A549 48 h
[9] = 24 h, read-out: IC50 (µM ± SD) HaCat 24 h
[10] = 48 h, read-out: IC50 (µM ± SD) HaCat 48 h
[11] = HCT116, 24 h, read-out: IC50 (µM ± SD) HCT116 24 h
[12] = HCT116, 48 h, read-out: IC50 (µM ± SD) HCT116 48 h
[13] = Hep-2, 24 h, read-out: IC50 (µM ± SD) Hep-2 24 h
[14] = Hep-2, 48 h, read-out: IC50 (µM ± SD) Hep-2 48 h

Compound	melting point	IC50 [1, 7]	IC50 [1, 8]	Selectivity Index A549 48 h ([1]; IC50 of HaCat / IC50 of A549, 48 h)	IC50 [2, 9]	IC50 [2, 10]	IC50 [3, 11]	IC50 [3, 12]	Selectivity Index HCT116 24 h [3]	Selectivity Index HCT116 48 h [3]	cytotoxicity for Hep-2 cells (in words) [4]	IC50 [4, 13]	IC50 [4, 14]	IC50 [5]	cytotoxicity effect against A549 cells (in words) ([1]; 24 and 48 h treatments)	cytotoxicity against the non-tumor cells HaCat (in words) ([2]; highest evaluated concentration 100 μM, all exposure times)	activity compared to doxorubicin (fold) ([3]; HCT116 cell line, IC50 relative to doxorubicin)	Selectivity Index Hep-2 24 h [4]	IC50 [6]
O=c1ccn(Cc2cn(Cc3cc(=O)oc4cc(O)cc(O)c34)nn2)c(=O)[nH]1 [Compound 7a, 1-((1-((5,7-Dihydroxy-2-oxo-2H-chromen-4-yl)methyl)-1H-1,2,3-triazol-4-yl)methyl) Pyrimidine-2,4(1H,3H)-dione]	230 °C (dec.)	> 100 µM	> 100 µM		> 100 µM	> 100 µM	> 100 µM	> 100 µM				> 100 µM	> 100 µM						
Cc1cn(Cc2cn(Cc3cc(=O)oc4cc(O)cc(O)c34)nn2)c(=O)[nH]c1=O [Compound 7b, 1-((1-((5,7-Dihydroxy-2-oxo-2H-chromen-4-yl)methyl)-1H-1,2,3-triazol-4-yl)methyl)-5-methylpyrimidine-2,4(1H,3H)-dione]	285 °C (dec.)	> 100 µM	> 100 µM		> 100 µM	> 100 µM	> 100 µM	> 100 µM				> 100 µM	> 100 µM						
O=C1C(=O)N(CCCn2cc(Cn3ccc(=O)n(Cc4cn(CCCN5C(=O)C(=O)c6ccc(Cl)cc65)nn4)c3=O)nn2)c2cc(Cl)ccc21 [B]														13.9 µM					
Cc1cn(Cc2cn(Cc3cc(=O)oc4c3ccc3ccccc34)nn2)c(=O)[nH]c1=O [Compound 8b, 1-((1-((2-Oxo-2H-benzo[h]chromen-4-yl)methyl)-1H-1,2,3-triazol-4-yl)methyl)-5-methylpyrimidine-2,4(1H,3H)-dione]	270 to 272 °C	> 100 µM	> 100 µM		454.1 ± 2.67 µM	> 100 µM	87.6 ± 1.94 µM	> 100 µM	5			> 100 µM	> 100 µM						
COc1cccc2c1C(=O)c1c(O)c3c(c(O)c1C2=O)C[C@@](O)(C(=O)CO)C[C@@H]3O[C@H]1C[C@H](N)[C@H](O)[C@H](C)O1 [Doxorubicin, doxorubicin, reference compound]						39.3 ± 1.59 µM		1.23 ± 0.05 µM					1.69 ± 0.15 µM						
COc1cccc(/C=C/C(=O)c2cccc(-n3cc(COc4cc(=O)oc5ccccc45)nn3)c2)c1OC [A]																			0.53 µM
O=c1ccn(Cc2cn(Cc3cc(=O)oc4c3ccc3ccccc34)nn2)c(=O)[nH]1 [Compound 8a, 1-((1-((2-Oxo-2H-benzo[h]chromen-4-yl)methyl)-1H-1,2,3-triazol-4-yl)methyl) Pyrimidine-2,4(1H,3H)-dione]	235 °C (dec.)	> 100 µM	> 100 µM		> 100 µM	> 100 µM	> 100 µM	> 100 µM				> 100 µM	> 100 µM						

Continued, in another order:

melting point	Compound	IC50 [1, 7]	IC50 [1, 8]	Selectivity Index A549 48 h ([1]; IC50 of HaCat / IC50 of A549, 48 h)	IC50 [2, 9]	IC50 [2, 10]	IC50 [3, 11]	IC50 [3, 12]	Selectivity Index HCT116 24 h [3]	Selectivity Index HCT116 48 h [3]	cytotoxicity for Hep-2 cells (in words) [4]	IC50 [4, 13]	IC50 [4, 14]	IC50 [5]	cytotoxicity effect against A549 cells (in words) ([1]; 24 and 48 h treatments)	cytotoxicity against the non-tumor cells HaCat (in words) ([2]; highest evaluated concentration 100 μM, all exposure times)	activity compared to doxorubicin (fold) ([3]; HCT116 cell line, IC50 relative to doxorubicin)	Selectivity Index Hep-2 24 h [4]	IC50 [6]
193 to 195 °C	O=c1cc(Cn2cc(Cn3ccc(=O)n(Cc4cn(Cc5cc(=O)oc6c5ccc5ccccc56)nn4)c3=O)nn2)c2ccc3ccccc3c2o1 [Compound 9b, 1,3-Bis((1-((2-oxo-2H-benzo[h]chromen-4-yl)methyl)-1H-1,2,3-triazol-4-yl)methyl)pyrimidine-2,4(1H,3H)-dione]	> 100 µM	51 ± 1.71 µM	63	1049 ± 3.02 µM	3228 ± 3.5 µM	54.5 ± 1.74 µM	59.2 ± 1.77 µM	19	55	No appreciative cytotoxicity was observed	> 100 µM	> 100 µM						
302 °C (dec.)	O=c1cc(Cn2cc(Cn3ccc(=O)n(Cc4cn(Cc5cc(=O)oc6cc(O)cc(O)c56)nn4)c3=O)nn2)c2c(O)cc(O)cc2o1 [Compound 9a, 1,3-Bis((1-((5,7-dihydroxy-2-oxo-2H-chromen-4-yl)methyl)-1H-1,2,3-triazol-4-yl)methyl)pyrimidine-2,4(1H,3H)-dione]	> 100 µM	> 100 µM		634.9 ± 2.8 µM	142 ± 2.15 µM	69.2 ± 1.85 µM	24.2 ± 1.39 µM		6		51.6 ± 1.71 µM	> 100 µM		No cytotoxicity effect was observed	did not exhibit appreciable cytotoxicity	approximately 20 fold	12	
288 to 290 °C	Cn1cnc2c1c(=O)n(Cc1cn(Cc3cc(=O)oc4c3ccc3ccccc34)nn1)c(=O)n2C [Compound 10b, 3,7-Dimethyl-1-((1-((2-oxo-2H-benzo[h]chromen-4-yl)methyl)-1H-1,2,3-triazol-4-yl)methyl)-3,7-dihydro-1H-purine-2,6-dione]	> 100 µM	> 100 µM		263.3 ± 2.42 µM	120 ± 2.08 µM	41 ± 1.61 µM	84.7 ± 1.92 µM	6			> 100 µM	> 100 µM						
315 °C (dec.)	Cn1cnc2c1c(=O)n(Cc1cn(Cc3cc(=O)oc4cc(O)cc(O)c34)nn1)c(=O)n2C [Compound 10a, 1-((1-((5,7-Dihydroxy-2-oxo-2H-chromen-4-yl)methyl)-1H-1,2,3-triazol-4-yl)methyl)-3,7-dimethyl-3,7-dihydro-1H-purine-2,6-dione]	> 100 µM	> 100 µM		307.8 ± 2.49 µM	> 100 µM	78.3 ± 1.89 µM	> 100 µM	4			56.6 ± 1.75 µM	> 100 µM					5	

Source: publication PMC11279566, “Novel Coumarin–Nucleobase Hybrids with Potential Anticancer Activity: Synthesis, In Vitro Cell-Based Evaluation, and Molecular Docking” (Pharmaceuticals, 2024)
